Earlier results as cited in patent publication US20250275937A1, “Methods For Reducing Negative Effects Of Alcohol Consumption” (Honed Life Sciences, LLC, priority 2018, published 2025).

Assays:
[1] = test system: acute alcohol (EtOH) intoxication; details: rats
[2] = test system: oxidative stress and liver fibrogenesis; details: mice

| SMILES | Counteracting acute alcohol (EtOH) intoxication and withdrawal signs (tolerance, increased anxiety, seizure susceptibility) [1] | Action on acute EtOH-induced potentiation of GABA receptors (GABA receptors) | Effect on oxidative stress and liver fibrogenesis [2] |
| --- | --- | --- | --- |
| O=C1c2c(O)cc(O)cc2O[C@H](c2cc(O)c(O)c(O)c2)[C@H]1O [DHM, dihydromyricetin] | highly effective | antagonizing | – |
| O=C(O)c1cc(C(=O)O)c2c(n1)C(=O)C(=O)c1cc(C(=O)O)[nH]c1-2 [PQQ, pyrroloquinoline quinone] | – | – | suppresses oxidative stress and liver fibrogenesis |
